Test results: article PMC12040169 (PLOS Biology, 2025)

test: in vitro; settings: human, hela cells, % viability

SMILES | viability at 28.5 h, 10 µM [%]
NS(=O)(=O)c1ccc(CNC(=O)C(Sc2ccccc2)c2ccccc2)cc1 (stereo not drawn) [CBK264355] | 91.5
Cn1c(SCC(=O)c2ccccc2)nnc1-c1ccc(NC(=O)c2ccccc2Cl)cc1 [CBK264357] | 95
Cc1cccc(NC(=O)C2CC(=O)N=C(Nc3nc4ccccc4s3)N2)c1 (stereo not drawn) [CBK264362] | 108
CN(CC(=O)OCC(=O)c1ccccc1)S(=O)(=O)c1ccc(Cl)cc1 [CBK264363] | 105
CN(C)S(=O)(=O)NCc1ccc2c(c1)OCO2 [CBK264364] | 108
Cc1ccc(C(=O)/C=C(\Nc2cccc(C(F)(F)F)c2)C(=O)O)cc1 [CBK264366] | 101
NS(=O)(=O)c1ccc(CCNS(=O)(=O)c2ccccc2[N+](=O)[O-])cc1 [CBK264369] | 111
Cc1ccc2nc(SCc3cccc([N+](=O)[O-])c3)nc(C)c2c1 [CBK264370] | 106
O=C(/C=C/c1ccco1)NC(=S)Nc1ccccc1[N+](=O)[O-] [CBK264375] | 117
O=C(/C=C/c1cccc([N+](=O)[O-])c1)NC(=S)Nc1ccc(-c2nc3ccccc3[nH]2)cc1 [CBK264376] | 102
CS(=O)(=O)N1CCN(CC(O)Cn2c3ccc(Cl)cc3c3cc(Cl)ccc32)CC1 (stereo not drawn) [CBK264381] | 94
CN(C)S(=O)(=O)Nc1ccccc1C(N)=O [CBK264382] | 111
Cc1ccc(C(=O)/C=C\Nc2ccc(S(=O)(=O)Nc3cc(C)nc(C)n3)cc2)cc1 [CBK264384] | 124
CCc1ccc(O)c(NC(=S)NC(=O)c2cccc3c(Br)cccc23)c1 [CBK264385] | 111
COc1ccc(C(=O)/C=C(\Nc2cccc(C(F)(F)F)c2)C(=O)O)cc1 [CBK264387] | 107
O=C(CSc1nnc(-c2ccco2)[nH]1)c1ccc(O)cc1O [CBK264392] | 108
COC(=O)C1CCN(S(=O)(=O)c2ccccc2[N+](=O)[O-])CC1 [CBK264393] | 115
NS(=O)(=O)c1ccc(CCNC(=O)c2ccc(Cl)c([N+](=O)[O-])c2)cc1 [CBK264395] | 94.8
CCOC(=O)c1ccc(NC(=O)C2CC(=O)NC(Nc3nc4ccccc4s3)=N2)cc1 (stereo not drawn) [CBK264396] | 100
CC(CC(=O)O)CC(=O)NNc1ncc(Cl)cc1Cl (stereo not drawn) [CBK264398] | 102
CC(C)(C)c1ccc(O)c(NC(=S)NC(=O)c2ccccc2I)c1 [CBK264399] | 114

SMILES | viability at 28.5 h, 10 µM [%]
O=c1/c(=C/c2cccnc2)sc2n1CN(c1cccc([N+](=O)[O-])c1)CN=2 [CBK264401] | 76.9
Cc1ccc(/C=C/C(=O)O)cc1S(=O)(=O)NCCO [CBK264404] | 93.2
O=[N+]([O-])c1ccccc1/C=C\C=N\n1c(S)nnc1-c1ccc(Cl)cc1Cl [CBK264405] | 95
Cc1ccc(/C=C/C(=O)O)cc1S(=O)(=O)NC1CCS(=O)(=O)C1 (stereo not drawn) [CBK264409] | 96.1
COc1cccc(C(=O)Nc2ccc(O)c(C)c2)c1 [CBK264413] | 88.1
O=S(=O)(NCCc1nc2ccccc2[nH]1)c1ccc(Cl)c(Cl)c1 [CBK264416] | 93.5
O=[N+]([O-])c1ccc(N2CCN(S(=O)(=O)c3ccc4ccccc4c3)CC2)cc1NCc1ccco1 [CBK264417] | 108
O=C(O)COc1ccccc1/C=N/n1c(S)nnc1-c1ccc(Cl)cc1Cl [CBK264418] | 89.5
COc1ccc(-c2nnc(S)n2/N=C\c2ccc(C(=O)O)cc2)cc1 [CBK264419] | 92.4
Cc1ccc(/C=C/C(=O)O)cc1S(=O)(=O)N1CCCc2ccccc21 [CBK264425] | 101
O=C(O)CSc1nnc(-c2ccncc2)n1-c1ccccc1 [CBK264426] | 109
Nc1nc(SCCCN2C(=O)c3cccc4cccc(c34)C2=O)nc2sc3c(c12)CCCC3 [CBK264433] | 99.1
N#CCCN(Cc1ccccc1)C(=O)c1ccccc1[N+](=O)[O-] [CBK264434] | 92.6
CCc1ccc(OCC(=O)c2ccc(O)c(CN(C)C)c2O)cc1 [CBK264438C] | 116
CC(=O)Nc1ccc(S(=O)(=O)N2CCN(c3ccc([N+](=O)[O-])c(NC4CC4)c3)CC2)cc1 [CBK264439] | 97.3
Oc1ccc(-c2n[nH]c(C(F)(F)F)c2Oc2ccc(F)cc2)c(O)c1 [CBK264440] | 89.5
COc1cccc(/C=C2/SC(=S)NC2=O)c1OCCCOc1ccc(C)cc1C [CBK264441] | 94.8
NC(=O)c1cc([N+](=O)[O-])ccc1NCCN1C(=O)c2ccc(C(=O)O)cc2C1=O [CBK264444] | 105
Oc1cccc2ccc(/C=C/c3ccc(-c4ccccc4Cl)o3)nc12 [CBK264445] | 97.7
COc1cccc(/C=C2/SC(=S)N(C)C2=O)c1OCCCOc1ccc(C)cc1C [CBK264446] | 102
C(=C\C1Nc2ccccc2-c2nnc(SCc3ccccc3)nc2O1)/c1ccccc1 (stereo not drawn) [CBK264447] | 112

SMILES | viability at 28.5 h, 10 µM [%]
COCC(=O)Nc1cc(OC)c(Cl)cc1OC [CBK264448] | 103
O=C(O)/C=C\C(=O)Nc1ccc(OCC(=O)O)cc1 [CBK264449] | 102
O=[N+]([O-])c1cccc(-c2noc(COc3ccc(Br)cc3Cl)n2)c1 [CBK264452] | 101
N/C(=N\OC(=O)CCCc1ccccc1)c1ccc(Cl)cc1 [CBK264454] | 107
O=C(NCc1cccnc1)c1cc(S(=O)(=O)N2CCCC2)c(Cl)cc1Cl [CBK264455] | 108
CN(C)CCCN1C(=O)C(O)=C(C(=O)c2ccc(F)cc2)C1c1ccco1 (stereo not drawn) [CBK264456] | 94.6
CCCc1cc(=O)oc2cc(OCC(=O)OC(C)C)c(Cl)cc12 [CBK264459] | 96.9
O=S(=O)(c1ccccc1)N(CC(O)CN1CCCC1)c1cccc2ccccc12 (stereo not drawn) [CBK264464C] | 93.9
O=C(O)CC1S/C(=N/N=C/c2cn(Cc3ccccc3)c3ccccc23)NC1=O (stereo not drawn) [CBK264466] | 102
C(=C\c1ccccc1)/CSc1nnc(CSc2nc3ccccc3s2)n1-c1ccccc1 [CBK264467] | 101
O=C(NCCCN1CCOCC1)c1ccc(/C=N/O)nc1 [CBK264468] | 107
O=C(CC1S/C(=N/N=C/c2ccc(-c3ccc(Cl)c([N+](=O)[O-])c3)o2)NC1=O)Nc1ccccc1 (stereo not drawn) [CBK264473] | 92.9
CCOC(=O)c1ccc(-c2ccc(/C=N/N=C3\NC(=O)C(CC(=O)O)S3)o2)cc1 (stereo not drawn) [CBK264474] | 108
Cc1ccc(C(=O)C2=C(O)C(=O)N(CCCn3ccnc3)C2c2ccncc2)cc1 (stereo not drawn) [CBK264476] | 106
Cc1[nH]nc(-c2ccc(O)c(C)c2O)c1Oc1ccc(F)cc1 [CBK264478] | 124
N#C/C(=C/c1ccc(-c2ccc(S(N)(=O)=O)cc2)o1)c1nc2ccccc2s1 [CBK264480] | 83.8
Cc1sc2nc(SCCCC(=O)NCCO)nc(N)c2c1C [CBK264482] | 96.2
O=C(C1=C(O)C(=O)N(CCCn2ccnc2)C1c1ccccc1)c1cccs1 (stereo not drawn) [CBK264484] | 110
Cc1cc(C)nc(SCCCn2c(=O)[nH]c3ccccc32)n1 [CBK264485] | 112
CN(C)CCN1C(=O)C(O)=C(C(=O)c2ccco2)C1c1ccc([N+](=O)[O-])cc1 (stereo not drawn) [CBK264486] | 109
O=c1c(Oc2ccc3ccccc3c2)c(C(F)(F)F)oc2c(CN3CCOCC3)c(O)ccc12 [CBK264487] | 103

SMILES | viability at 28.5 h, 10 µM [%]
NS(=O)(=O)c1ccc(NC(=O)c2cccnc2)cc1 [CBK264488] | 106
O=C(C1=C(O)C(=O)N(CCN2CCOCC2)C1c1cccc(Br)c1)c1ccco1 (stereo not drawn) [CBK264490] | 94.4
COc1ccc(OC)c(C2C(C(=O)c3ccc(C)cc3)=C(O)C(=O)N2Cc2cccnc2)c1 (stereo not drawn) [CBK264492] | 113
Cc1ccc2ccccc2c1Cn1cc(-c2ccc([N+](=O)[O-])cc2)nc1SCC(=O)NC(C)(C)C [CBK264493] | 115
c1ccc(-c2csc3ncnc(-n4cnc5ccccc54)c23)cc1 [CBK264494] | 109
CC(=O)N/C(=C/c1ccc([N+](=O)[O-])cc1)C(=O)Nc1cccc(C(=O)O)c1 [CBK264495] | 94.8
Cc1oc2c(CN(C)C)c(O)ccc2c(=O)c1-c1cnn(-c2ccccc2)c1 [CBK264496] | 101
Cc1cc(C(=O)O)cc(S(=O)(=O)N2CCOCC2)c1C [CBK264497] | 89.5
O=C(O)/C=C/C(=O)Nc1ccc(S(=O)(=O)NCc2ccco2)cc1 [CBK264500] | 106
COc1cc(/C=C2\SC(=N)NC2=O)cc(Cl)c1OS(=O)(=O)c1ccc(NC(C)=O)cc1 [CBK264502] | 107
COc1cc(-c2nc(-c3ccc(Cl)cc3)c(-c3ccccc3)[nH]2)c([N+](=O)[O-])cc1OC [CBK264503] | 98.9
O=C(OCc1ccccc1)Sc1nnc(-c2ccc([N+](=O)[O-])cc2)o1 [CBK264504] | 91.3
CCN(CC)S(=O)(=O)c1csc(C(=O)Nc2cccc([N+](=O)[O-])c2)c1 [CBK264505] | 91.3
O=C(C1=C(O)C(=O)N(CCN2CCOCC2)C1c1ccco1)c1cccs1 (stereo not drawn) [CBK264506] | 96
O=C(O)CC1SC(N/N=C/c2ccc(-c3ccc(Cl)cc3[N+](=O)[O-])o2)=NC1=O (stereo not drawn) [CBK264507] | 108
CCC(NS(=O)(=O)c1ccc(OC)cc1)C(=O)O (stereo not drawn) [CBK264509] | 100
Cc1c(C)n(O)[n+]([O-])c1-c1ccccc1 [CBK264510N] | 103
CN(C)CCCN1C(=O)C(O)=C(C(=O)c2cccs2)C1c1cccnc1 (stereo not drawn) [CBK264511] | 88.2

same assay, conditions: human, hela cells, % viability, bulk resorufin, single well

SMILES | viability at 28.5 h, 10 µM [%]
CN1CCN(c2ccc(C=C3C(=O)NC(=S)NC3=O)o2)CC1 [CBK264367] | 98.6
CN1C(=O)C(=CNCCCC(=O)O)C(=O)N(C)C1=O [CBK264420] | 90.4
CCOc1cc(/C=C2/C(=O)NC(=S)N(c3ccccc3CC)C2=O)ccc1OC(C)C(=O)O (stereo not drawn) [CBK264460] | 97.8
